From patent publication US8399689B2, “Chrysophaentin antimicrobial compounds that inhibit FtsZ protein” (The United States of America, as represented by the …, priority 2010, dated 2013)
Converted amounts (≈) assume the structure as drawn. Where two headings read alike, the source gives them in different places.

Columns and labels:
[1] = test system: Staphylococcus aureus (SA, ATCC 25923); assay: Agar disk diffusion assay, S. aureus; assay type: cell-based; details: Lowest concentrations leading to 8-10 mm zones of inhibition
Description: (§1) Compounds 1-8 were tested for antimicrobial activity against Staphylococcus aureus (SA, ATCC 25923), methicillin-resistant S. aureus (MRSA, ATCC BAA-41), multidrug-resistant S. aureus (MDRSA, ATCC BAA-44), Enterococcus faecium (EF, ATCC 49032), vancomycin-resistant E. Faecium (VRE, ATCC 700221), and Bacillus subtilis (ATCC 49343) using a modified disk diffusion assay and microbroth liquid dilution assays. For disk diffusion assays, agar plates seeded with suspensions of bacteria were prepared by adding 500 μL of a 24 h culture of bacteria to 100 mL of autoclaved Mueller Hinton II agar and cooled to 55° C. Seeded liquid agar (10 mL) was transferred immediately to square Petri dishes and allowed to cool for 1 h. Control drugs used for each microorganism included kanamycin (50 μg) for S. aureus, and nitrofurantoin (25 μg) for MRSA. Following incubation at 37° C. for 18 h, zones of inhibition were measured. MICso values for compounds 1 and 4-8 were determined using a microbroth dilution assay outlined in the Clinical and Laboratory Standards Institute methods for susceptibility tests for bacteria that grow aerobically. Briefly, single bacterial colonies were used to inoculate 4 mL of Trypticase Soy broth (BD) for overnight growth and inoculum for each were diluted to 5×10^5 CFU/mL using the 0.5 McFarland standard. In a 96 well plate (Costar, round bottom), control antibiotics (oxacillin for SA and MRSA, vancomycin for EF and VRE, chloramphenicol for B. subtilis) or natural product inhibitors were added to Muller Hinton II broth (for S. aureus, MRSA, and B. subtilis) or 10% brain heart infusion broth (for E. faecium and VRE) in the first column of the well plates, and serially diluted across the plate, reserving wells for a positive growth control (no treatment). 10 μL of diluted bacteria were added to all wells with the exception of those kept for broth blanks (MHII or brain heart infusion broth only). Plates were incubated at 37° C. overnight and read at absorbance 600 nm on a Molecular Devices plate reader. Growth curves were plotted and ICso values obtained using Kalidagraph software.

[2] = test system: methicillin-resistant S. aureus (MRSA, ATCC BAA-41); assay: Agar disk diffusion assay, MRSA; assay type: cell-based, Staphylococcus aureus; details: Lowest concentrations leading to 8-10 mm zones of inhibition
Description: as §1

[3] = test system: Enterococcus faecium (EF, ATCC 49032); assay: Agar disk diffusion assay, E. faecium; assay type: cell-based; details: Lowest concentrations leading to 8-10 mm zones of inhibition
Description: as §1

[4] = test system: vancomycin-resistant E. Faecium (VRE, ATCC 700221); assay: Agar disk diffusion assay, VREF; assay type: cell-based, Enterococcus faecium; details: Lowest concentrations leading to 8-10 mm zones of inhibition
Description: as §1

[5] = test system: Staphylococcus aureus (SA, ATCC 25923); assay: Microbroth dilution assay, S. aureus; assay type: cell-based; details: for MIC50: Staphylococcus aureus
Description: as §1

[6] = test system: methicillin-resistant S. aureus (MRSA, ATCC BAA-41); assay: Microbroth dilution assay, MRSA; assay type: cell-based, Staphylococcus aureus; details: for MIC50: Staphylococcus aureus, read-out: MIC50 (μg/mL) MRSA
Description: as §1

[7] = test system: Enterococcus faecium (EF, ATCC 49032); assay: Microbroth dilution assay, E. faecium; assay type: cell-based; details: concentration at which growth is reduced by 50%; for MIC50: Enterococcus faecium, ATCC49032, microbroth dilution, read-out: MIC50 (μg/mL) E. faecium
Description: as §1

[8] = test system: vancomycin-resistant E. Faecium (VRE, ATCC 700221); assay: Microbroth dilution assay, VREF; assay type: cell-based, Enterococcus faecium; details: for MIC50: Enterococcus faecium, read-out: MIC50 (μg/mL) VREF
Description: as §1

[9] = test system: Gram-positive pathogens (S. aureus, B. subtilis, E. faecium, MRSA, MDRSA, VREF); assay: Disk diffusion and microbroth dilution assays, strains taken together; assay type: cell-based
Source text: Solid agar disk diffusion and microbroth dilution assays were used to evaluate the antimicrobial activities of compounds 1, hexaacetate 1a, and 4-8 toward clinically relevant, Gram-positive pathogens, including the drug-susceptible bacteria Staphylococcus aureus, Bacillus subtilis and Enterococcus faecium, and drug-resistant strains methicillin-resistant S. aureus (MRSA), multidrug-resistant S. aureus (MDRSA), and vancomycin-resistant E. faecium (VREF) (see Table 7, Example 2).
as §1, with “In a 96 well plate (Costar, round bottom), control antibiotics (oxacillin for SA and MRSA, vancomycin for EF and VRE, chloramphenicol for B. subtilis) or natural product inhibitors were added to Muller Hinton II broth (for S. aureus, MRSA, and B. subtilis) or 10% brain heart infusion broth (for E. faecium and VRE) in the first column of the well plates, and serially diluted across the plate, reserving wells for a positive growth control (no treatment). 10 μL of diluted bacteria were added to all wells with the exception of those kept for broth blanks (MHII or brain heart infusion broth only).” left out, “Growth curves were plotted and ICso values obtained using Kalidagraph software.” left out

tubulin = assay: Tubulin polymerization assay; assay type: biochemical; details: chrysophaentin 1 at 150 μM; paclitaxel, nocodazole at standardized concentrations
[10] = ATCC25923, microbroth dilution, concentration at which growth is reduced by 50%, read-out: MIC50 (μg/mL) S. aureus
[11] = microbroth dilution, concentration at which growth is reduced by 50%
[12] = ATCC25923, read-out: MIC50 (μg/mL) S. aureus

## Oc1cc(O)c2c(c1)C/C(Cl)=C\Cc1cc(c(Br)cc1O)Oc1c(O)cc(cc1O)C/C(Cl)=C\Cc1cc(c(Br)cc1O)O2 [Compound 4, chrysophaentin 4]
[1]
  Agar disk diffusion (μg/disk) S. aureus: 25 μg/disk
[2]
  Agar disk diffusion (μg/disk) MRSA: 25 μg/disk
[3]
  Agar disk diffusion (μg/disk) E. faecium: 25 μg/disk
[4]
  Agar disk diffusion (μg/disk) VREF: 25 μg/disk
[5]; [10]
  MIC50: > 25 µg/mL
[6]; [11]
  MIC50: 19 ± 5.9 µg/mL (≈ 24.8 µM)
[7]
  MIC50: > 50 µg/mL
[8]; [11]
  MIC50: > 25 µg/mL
[9]; all four strains
  fold change in MIC50 versus chrysophaentin 1: ~12 fold

## Oc1cc(O)cc(C/C(Cl)=C\Cc2cc(Oc3c(O)cc(C/C(Cl)=C\Cc4cc(O)c(Cl)cc4O)cc3O)c(Cl)cc2O)c1 [Compound 5, chrysophaentin 5]
[1]
  Agar disk diffusion (μg/disk) S. aureus: 25 μg/disk
[2]
  Agar disk diffusion (μg/disk) MRSA: 10 μg/disk
[3]
  Agar disk diffusion (μg/disk) E. faecium: 25 μg/disk
[4]
  Agar disk diffusion (μg/disk) VREF: 25 μg/disk
[5]; [12]
  MIC50: 10.5 ± 3.8 µg/mL (≈ 15.4 µM)
[6]; [11]
  MIC50: 8.9 ± 2.8 µg/mL (≈ 13.1 µM)
[7]
  MIC50: > 25 µg/mL
[7]; microbroth dilution
  MIC50 (μg/mL) E. faecium: >25 µg/mL
[8]; [11]
  MIC50: > 25 µg/mL
  MIC50 (μg/mL) VREF: >25 µg/mL

## Oc1cc(Cl)c2cc1C/C=C(/Cl)Cc1cc(O)c(c(O)c1)Oc1cc(c(O)cc1Cl)C/C=C(/Cl)Cc1cc(O)c(c(O)c1)O2 [Compound 6, chrysophaentin 6]
[1]
  Agar disk diffusion (μg/disk) S. aureus: 10 μg/disk
[2]
  Agar disk diffusion (μg/disk) MRSA: 10 μg/disk
[3]
  Agar disk diffusion (μg/disk) E. faecium: 10 μg/disk
[4]
  Agar disk diffusion (μg/disk) VREF: 10 μg/disk
[5]; [10]
  MIC50: 4 to 6 µg/mL (≈ 5.9 to 8.85 µM)
[5]; [11]
  MIC50 (μg/mL) S. aureus: 5.3 ± 1.9 µg/mL (≈ 7.81 µM)
[6]; [11]
  MIC50: 4 to 6 µg/mL (≈ 5.9 to 8.85 µM)
  MIC50 (μg/mL) MRSA: 4.2 ± 1.2 µg/mL (≈ 6.19 µM)
[7]
  MIC50: > 25 µg/mL
[8]; [11]
  MIC50: ~9.5 µg/mL (≈ 14 µM)
  MIC50 (μg/mL) VREF: 9.5 ± 3.0 µg/mL (≈ 14 µM)
[9]
  potency relative to compound 7: at least 3 ×

## Oc1cc(Cl)c2cc1C/C=C(/Cl)Cc1cc(O)c(c(O)c1)Oc1cc(c(O)cc1Br)C/C=C(/Cl)Cc1cc(O)c(c(O)c1)O2 [Compound 7, chrysophaentin 7]
[1]
  Agar disk diffusion (μg/disk) S. aureus: NA (NA, no zone of inhibition observed at 25 μg/disk)
[2]
  Agar disk diffusion (μg/disk) MRSA: NA (NA, no zone of inhibition observed at 25 μg/disk)
[3]
  Agar disk diffusion (μg/disk) E. faecium: NA (NA, no zone of inhibition observed at 25 μg/disk)
[4]
  Agar disk diffusion (μg/disk) VREF: NA (NA, no zone of inhibition observed at 25 μg/disk)
[5]; [12]
  MIC50: 16.6 ± 5.3 µg/mL (≈ 23 µM)
[6]
  MIC50: 12.3 ± 3.1 µg/mL (≈ 17 µM)
[7]
  MIC50: > 50 µg/mL
[8]
  MIC50: 24.6 ± 7.3 µg/mL (≈ 34 µM)

## Oc1cc(Cl)c2cc1C/C=C(/Cl)Cc1cc(O)c(c(O)c1Br)Oc1cc(c(O)cc1Cl)C/C=C(/Cl)Cc1cc(O)c(c(O)c1)O2 [Compound 8, chrysophaentin 8]
[5]; [10]
  MIC50: 4 to 6 µg/mL (≈ 5.28 to 7.92 µM)
[6]; [11]
  MIC50: 4 to 6 µg/mL (≈ 5.28 to 7.92 µM)
[7]
  MIC50: > 25 µg/mL
[8]; [11]
  MIC50: ~9.5 µg/mL (≈ 12.5 µM)

## COC(=O)Nc1nc2ccc(C(=O)c3cccs3)cc2[nH]1 [nocodazole, reference compound]
tubulin
  tubulin polymerization velocity v: 12 min⁻¹

## CC(=O)O[C@H]1C(=O)[C@@]2(C)[C@H]([C@H](OC(=O)c3ccccc3)[C@]3(O)C[C@H](OC(=O)[C@H](O)[C@@H](NC(=O)c4ccccc4)c4ccccc4)C(C)=C1C3(C)C)[C@]1(OC(C)=O)CO[C@@H]1C[C@@H]2O [paclitaxel, reference compound]
tubulin
  tubulin polymerization velocity v: 80 min⁻¹
